Results published in patent US9802949B2, “Fused ring compounds as hepatitis C virus inhibitors, pharmaceutical compositions and uses thereof” (SUNSHINE LAKE PHARMA CO., LTD., priority 2012, dated 2017).

Columns and labels:
HCV GT1b replicon = experiment: HCV replicon assay (Huh-7 cells stably transfected with HCV GT1b replicon; luciferase or NEO gene qPCR readout); format: cell-based; conditions: Hepatitis C virus, HCV 1b genotype replicon, 72 hours
Procedure: (§1) HCV Replicon System was utilized as a screening model in the present disclosure to evaluate the antivirus effects of the compounds disclosed herein against HCV. HCV Replicon assay was first described in Science, 1999, 285 (5424), 110-3. […] To determine the potential anti-HCV effects of the test compounds, luciferase assay and antibiotic Neomycin resistance gene were tested according to the method described in Science. 1999 Jul. 2; 285 (5424), 110-3 and J. Virol. 2003 March; 77 (5), 3007-19.
(§2) In a word, the compounds disclosed herein were tested by using human hepatic carcinoma cell line Huh-7 which is transfected stably with HCV GT1a, GT1b or GT2a replicon respectively, and resistant cells of Y93H, L31F, P32L or I302V and wild-type cells HCV 1b. HCV Replicon System disclosed herein contains G418 resistance gene NEO and Luciferase Reporter Gene, and the level of HCV replication in host cells is detected and characterized by the expression level of the NEO gene or Luciferase Reporter Gene, so the effects of the compounds herein inhibit HCV replication can be evaluated in this system. In this article, a real-time quantitative polymerase chain reaction (qPCR) method was used to detect NEO gene expression level, and chemiluminescence method was used to test Luciferase Reporter Gene expression level.
(§3) 1. Test Method for Measuring EC50 of the Compounds Based on Luciferase Assay.
(§4) The Huh-7 cells transfected with HCV replicons system were seeded into 96-well plates (8,000 cells in 125 μL/well) respectively; each test compound was diluted to desired concentration using 5-fold serial dilutions protocol, 10 doses in duplicate, and added to wells with POD™ 810 Plate Assembler. The plates were incubated in a CO2 incubator for 72 hours; after that, 40 μL of Luciferase assay substrate (Promega Bright-Glo) was added to each well, and detected by a chemiluminescence detection system (Topcount Microplate Scintillation and Luminescence Counter) 5 minutes later; the EC50 (half-maximal effective concentration, concentration for 50% of maximal effect) values of test compounds were analyzed by GraphPad Prism software. In this paper, experiments were repeated twice and set the wells without compounds as negative control.
(§5) 2. Test Method for Measuring EC50 of the Compounds by Detecting Antibiotic G418 Resistance Gene NEO Gene.
(§6) The Huh-7 cells transfected with HCV replicons system were seeded into 96-well plates (8,000 cells in 125 μL/well) respectively; each test compound was diluted to desired concentration using 5-fold serial dilutions protocol, 10 doses in duplicate, and added to each well with POD™ 810 Plate Assembler; the cells were incubated in a CO2 incubator for 72 hours; and detected the expression level of the NEO gene expression with real-time quantitative PCR later; the EC50 (half-maximal effective concentration, concentration for 50% of maximal effect) values of test compounds were analyzed by GraphPad Prism software, respectively. In this paper, experiments were repeated twice and set the wells without compounds as negative control.

HCV GT1a replicon = experiment: HCV replicon assay (Huh-7 cells stably transfected with HCV GT1a replicon; luciferase or NEO gene qPCR readout); format: cell-based; conditions: Hepatitis C virus, HCV 1a genotype replicon, 72 hours
Procedure: as §1, §2, §3, §4, §5, §6

Structure (SMILES)	EC50 (HCV GT1b replicon)	EC50 (HCV GT1a replicon)
CC[C@H](C)[C@H](NC(=O)OC)C(=O)N1CCC[C@H]1C1=Nc2ccc(-c3ccc(-c4ccc5nc([C@@H]6CCCN6C(=O)[C@@H](NC(=O)OC)C(C)C)[nH]c5c4)c4c3CC3CCCC43)cc2S(=O)(=O)N1 (stereo partly shown) [Example 31]	0.035 nM	0.083 nM
COC(=O)N[C@H](C(=O)N1CCC[C@H]1c1ncc(-c2ccc(-c3ccc(-c4ccc5nc([C@@H]6CCCN6C(=O)[C@@H](NC(=O)OC)C(C)C)[nH]c5c4)c4c3C3CCC3C4)cc2)[nH]1)C(C)C (stereo partly shown) [Example 4]	0.02 nM	0.06 nM
COC(=O)NC(C(=O)N1CCCC1c1nc2ccc(-c3ccc(-c4ccc(-c5cnc(C6C7CCC(C7)N6C(=O)C(NC(=O)OC)C(C)C)[nH]5)cc4)c4c3C3CCC3C4)cc2[nH]1)C(C)C (stereo not shown) [Example 36]	0.01 nM	0.935 nM
COC(=O)NC(C(=O)N1CCCC1c1nc2ccc(-c3ccc(-c4ccc(-c5cnc(C6CC7CC7N6C(=O)C(NC(=O)OC)C(C)C)[nH]5)cc4)c4c3CC3CCC43)cc2[nH]1)C(C)C (stereo not shown) [Example 37]	0.016 nM	0.063 nM
COC(=O)N[C@H](C(=O)N1CC(F)(F)C[C@H]1c1ncc(-c2ccc(-c3ccc(-c4ccc5[nH]c([C@@H]6CC(F)(F)CN6C(=O)[C@@H](NC(=O)OC)C(C)C)nc5c4)c4c3C3CCC3C4)cc2)[nH]1)C(C)C (stereo partly shown) [Example 12]	0.027 nM	0.08 nM
COC(=O)N[C@H](C(=O)N1CC(C)(C)C[C@H]1c1ncc(-c2ccc(-c3ccc(-c4ccc5nc([C@@H]6CC(C)(C)CN6C(=O)[C@@H](NC(=O)OC)C(C)C)[nH]c5c4)c4c3C3CCC3C4)cc2)[nH]1)C(C)C (stereo partly shown) [Example 15]	0.105 nM	0.381 nM
COC(=O)N[C@H](C(=O)N1CCC[C@H]1c1nc2ccc(-c3ccc(-c4ccc(-c5cnc([C@@H]6CC7CC7N6C(=O)[C@@H](NC(=O)OC)C(C)C)[nH]5)cc4)c4c3CC3CCC43)cc2[nH]1)C(C)C (stereo partly shown) [Example 3]	0.018 nM	0.088 nM
COC(=O)N[C@H](C(=O)N1C[C@@H](C)C[C@H]1c1ncc(-c2ccc(-c3ccc(-c4ccc5nc([C@@H]6C[C@H](C)CN6C(=O)[C@@H](NC(=O)OC)C(C)C)[nH]c5c4)c4c3C3CCC3C4)cc2)[nH]1)C(C)C (stereo partly shown) [Example 14]	0.001 nM	0.003 nM
COC(=O)N[C@H](C(=O)N1CCC[C@H]1c1ncc(C#Cc2ccc(-c3ccc4nc([C@@H]5CCCN5C(=O)[C@@H](NC(=O)OC)C(C)C)[nH]c4c3)c3c2C2CCC2C3)[nH]1)C(C)C (stereo partly shown) [Example 6]	0.106 nM	0.243 nM
COC(=O)N[C@H](C(=O)N1CCC[C@H]1c1ncc(-c2ccc(-c3ccc(-c4ccc5nc([C@@H]6CCCN6C(=O)[C@@H](NC(=O)OC)C(C)C)[nH]c5c4)c4c3CC3CCC43)c3cnoc23)[nH]1)C(C)C (stereo partly shown) [Example 24]	0.118 nM	0.207 nM
COC(=O)N[C@H](C(=O)N1CC2(CC2)C[C@H]1c1ncc(-c2ccc(-c3ccc(-c4ccc5nc([C@@H]6CC7(CC7)CN6C(=O)[C@@H](NC(=O)OC)C(C)C)[nH]c5c4)c4c3C3CCC3C4)cc2)[nH]1)C(C)C (stereo partly shown) [Example 17]	0.078 nM	0.062 nM
COC(=O)N[C@H](C(=O)N1CCCC1c1nc2ccc(-c3ccc(-c4ccc5nc([C@@H]6CCCN6C(=O)[C@@H](NC(=O)OC)C(C)C)[nH]c5c4)c4c3C3C(=O)CCC3C4)cc2[nH]1)C(C)C (stereo partly shown) [Example 32]	0.026 nM	0.063 nM
COC(=O)N[C@@H](C)C(=O)N1CCCC1C1=Nc2cc(-c3ccc(-c4cnc([C@@H]5CCCN5C(=O)[C@H](C)NC(=O)OC)[nH]4)c4c3CC3CCC43)ccc2C2(COC2)N1 (stereo partly shown) [Example 5]	0.119 nM	1.04 nM
COC(=O)N[C@H](C(=O)N1CCC[C@H]1c1ncc(-c2ccc(-c3ccc(-c4cnc([C@@H]5CCCN5C(=O)[C@@H](NC(=O)OC)C(C)C)[nH]4)c4c3C3CCCC3C4C)cc2)[nH]1)C(C)C (stereo partly shown) [Example 33]	0.03 nM	0.082 nM
COC(=O)N[C@H](C(=O)N1CCC[C@H]1c1cc(=O)c2cc(-c3ccc(-c4ccc(-c5cnc([C@@H]6CCCN6C(=O)[C@@H](NC(=O)OC)c6ccccc6)[nH]5)cc4)c4c3C3(C)CCC3C4)ccc2[nH]1)c1ccccc1 (stereo partly shown) [Example 30]	0.092 nM	0.211 nM
COC(=O)N[C@H](C(=O)N1CCC[C@H]1c1ncc(-c2ccc(-c3ccc(-c4ccc5nc([C@@H]6CC7CC7N6C(=O)[C@@H](NC(=O)OC)C(C)C)[nH]c5c4)c4c3C3CCC3C4)cc2)[nH]1)C(C)C (stereo partly shown) [Example 11]	0.033 nM	0.051 nM
COC(=O)N[C@H](C(=O)N1CCCC[C@H]1c1ncc(-c2ccc(-c3ccc(-c4ccc5nc([C@@H]6CCCCN6C(=O)[C@@H](NC(=O)OC)C(C)C)[nH]c5c4)c4c3C3CCC3C4)cc2)[nH]1)C(C)C (stereo partly shown) [Example 13]	0.206 nM	0.418 nM
COC(=O)NC(C(=O)N1CCCC1c1ncc(-c2ccc(-c3ccc(-c4cnc(C5CCCN5C(=O)C(NC(=O)OC)C(C)C)[nH]4)c4c3C3CCC3C4)cc2)[nH]1)C(C)C (stereo not shown) [Example 35]	0.007 nM	0.548 nM
COC(=O)N[C@H](C(=O)N1CCC[C@H]1c1ncc(-c2ccc(-c3ccc(-c4cnc([C@@H]5CCCN5C(=O)[C@@H](NC(=O)OC)C(C)C)[nH]4)c4c3C3CC(=O)CC3C4)cc2)[nH]1)C(C)C (stereo partly shown) [Example 34]	0.022 nM	0.075 nM
COC(=O)N[C@H](C(=O)N1CCC[C@H]1c1ncc(-c2ccc(-c3ccc(-c4ccc5nc([C@@H]6CCCN6C(=O)[C@@H](NC(=O)OC)C(C)C)[nH]c5c4)c4c3C3CCC3C4)nc2)[nH]1)C(C)C (stereo partly shown) [Example 8]	0.028 nM	0.066 nM
COC(=O)N[C@H](C(=O)N1CCC[C@H]1c1ncc(-c2ccc(-c3ccc(-c4ccc5nc([C@@H]6CCCN6C(=O)[C@@H](NC(=O)OC)C(C)C)[nH]c5c4)c4c3C3CCC3C4)c3ccccc23)[nH]1)C(C)C (stereo partly shown) [Example 23]	0.05 nM	0.449 nM
CC(C)[C@H](NC(=O)Oc1ccccc1)C(=O)N1CC(C)(C)C[C@H]1c1ncc(-c2ccc(-c3ccc(-c4ccc5nc([C@@H]6CC(C)(C)CN6C(=O)[C@@H](NC(=O)Oc6ccccc6)C(C)C)[nH]c5c4)c4c3C3CCC3C4)cc2)[nH]1 (stereo partly shown) [Example 16]	0.879 nM	2.55 nM
COC(=O)N[C@H](C(=O)N1CCC[C@H]1c1ncc(-c2ccc(-c3ncc(-c4ccc5nc([C@@H]6CCCN6C(=O)[C@@H](NC(=O)OC)C(C)C)[nH]c5c4)c4c3C3CCC3C4)cc2)[nH]1)C(C)C (stereo partly shown) [Example 25]	0.032 nM	0.065 nM
COC(=O)N[C@H](C(=O)N1CC2(C[C@H]1c1ncc(-c3ccc(-c4ccc(-c5ccc6nc([C@@H]7CCCN7C(=O)[C@@H](NC(=O)OC)C(C)C)[nH]c6c5)c5c4C4CCC4C5)cc3)[nH]1)OCCO2)C(C)C (stereo partly shown) [Example 20]	0.036 nM	0.429 nM
COC(=O)N[C@H](C(=O)N1CCC[C@H]1c1ncc(-c2ccc(-c3ccc(-c4ccc5nc([C@@H]6CCCN6C(=O)[C@@H](NC(=O)OC)C(C)C)[nH]c5c4)c4c3CC3CCC43)s2)[nH]1)C(C)C (stereo partly shown) [Example 7]	0.053 nM	0.093 nM
COC(=O)N[C@H](C(=O)N1[C@@H]2CC[C@@H](C2)[C@H]1c1ncc(-c2ccc(-c3ccc(-c4ccc5nc([C@@H]6[C@H]7CC[C@H](C7)N6C(=O)[C@@H](NC(=O)OC)C(C)C)[nH]c5c4)c4c3C3CCC3C4)cc2)[nH]1)C(C)C (stereo partly shown) [Example 19]	0.044 nM	0.217 nM
